Measurements published in ChEMBL document CHEMBL1137251, “Synthesis of rigid trichostatin A analogs as HDAC inhibitors” (Bioorg Med Chem Lett, 2006).
Calls of active or inactive are those of the source. The calls are words filed in the database; no cut-off is given here.

Key:
[1] = Antiproliferative activity against H661 cells; assay type: functional, cell-based; settings: Homo sapiens, NCI-H661
[2] = Antiproliferative activity against H1299 cells; assay type: functional, cell-based; settings: Homo sapiens, NCI-H1299
HCT-116 = experiment: Antiproliferative activity against HCT116 cells; assay type: functional, cell-based; settings: Homo sapiens
[3] = target: Histone H4 (Homo sapiens) (UniProt P62805); experiment: Acetylation of histone H4 at 2.5 uM by Western blot analysis
[4] = target: Histone H4 (Homo sapiens) (UniProt P62805); experiment: Acetylation of histone H4 at 5 uM by Western blot analysis
[5] = target: Histone H4 (Homo sapiens) (UniProt P62805); experiment: Acetylation of histone H4 at 0.3 uM by Western blot analysis

SMILES	IC50 [1]	further results
CC(/C=C/C(=O)Nc1ccccc1N)=C\C1(C)Cc2ccccc2C1=O (centres undefined)	3000 nM	–
C=C(/C=C/C(=O)Nc1ccccc1N)CC1(C)Cc2ccccc2C1=O (centres undefined)	> 10000 nM	–
CC(/C=C/C(=O)NO)=C\[C@@H](C)C(=O)c1ccc(N(C)C)cc1 [TRICHOSTATIN]	< 300 nM	IC50 [2]: 100 nM; IC50 (HCT-116): 1.3 nM
CC(/C=C/C(=O)Nc1ccccc1N)=C\C1(C)CCc2ccccc2C1=O (centres undefined)	5000 nM	–
CC(/C=C/C(=O)NO)=C\C1(C)Cc2ccccc2C1=O (centres undefined)	1650 nM	–
CC(/C=C/C(=O)NO)=C\C1(C)Cc2cc(F)ccc2C1=O (centres undefined)	1500 nM	Activity [3]: Active
CC(/C=C/C(=O)NO)=C\C1(C)CCc2ccccc2C1=O (centres undefined)	3000 nM	Activity [4]: Active
CC(/C=C/C(=O)Nc1ccccc1N)=C\C1(C)Cc2cc(F)ccc2C1=O (centres undefined)	7000 nM	–
CC(/C=C/C(=O)Nc1ccccc1N)=C\C1(C)Cc2cc(N(C)C)ccc2C1=O (centres undefined)	2500 nM	–
CC(/C=C/C(=O)NO)=C\C1(C)Cc2cc(N(C)C)ccc2C1=O (centres undefined)	–	Activity [5]: Active
